This is an account of results in PubChem BioAssay AID743300 (The Scripps Research Institute Molecular Screening Center, 2014).

The assay addresses methionyl-tRNA synthetase (Trypanosoma brucei brucei). Briefly: inhibition of trypanosomal methionyl-tRNA synthetase – biochemical, luminescence, dose response, round 2, late-stage follow-up (AID 743300). The following applies: T. brucei MetRS enzyme, luminescence read-out.

As a reminder, the IC50 is the concentration at which inhibition is half-maximal. Consider `CCN(CC)C(=O)C(=O)c1cn(CC(=O)Nc2cccc(C(F)(F)F)c2)c2ccccc12`, for which the 50% inhibitory concentration (IC50) is 99.5 nM.
